Where two headings read alike, the source gives them in different places.
Legend:
[1] = test system: Carr-induced inflammatory pain rat model; assay: Analgesic effect on mechanical hyperalgesia (PWT) in Carr-induced inflammatory pain rat model; format: in vivo
Protocol: The mechanical hyperalgesia of rats was measured by 38500-pressure application measurement (PAM) system (Ugo Basile Biological Research Apparatus, Comerio-Varese, Italy), which consisted of a hand-held part and an integrated electronic part. The hand-held part was a force sensor which was designed according to a Randall-Selitto algesimeter. The integrated electronic part was configured to automatically record a maximum PWT applied to the left hind paw of the rats.
The Carr-induced inflammatory pain model was built according to a published method (Alessandri-Haber N, et al. Neurosci. Vol 29(19), pp. 6217-6288, 2009) for evaluating an analgesic effect of drugs administered by intraplantar injection. […] Those rats with a PWT lower than 100 gf were considered to be a desired Carr-induced inflammatory pain model, those rats with the PWT higher than 100 gf was removed.
(S1) A total of 18 healthy adult SD rats, weighing 180-220 g, were selected, numbered on tails and placed in the same cage.
(S2) The rats were maintained in a measuring room for 2 h for adaptation.
The measurement was repeated 3-5 times for each rat with an interval of 5-10 min. The results of multiple PWT measurements were averaged as the Baseline (BL) (unit: g). After that, 6 μL of 1 wt % Carr was intradermally injected into the plantar surface of the hind paw to build an inflammatory pain rat model.
(S4) The PWT of the left hind paw of each rat was measured 1 h after the Carr injection. Rats with a higher inflammatory threshold and rats with a lower inflammatory threshold were mixed and equally divided into three groups (group A, group B and group C), each for six rats, such that any two groups of rats had similar distribution of inflammatory threshold. The groups A, B and C were intradermally injected with normal saline, 5 mg/kg of morphine and 2 μg/kg of the short peptide P10581, respectively, at the plantar surface of the left hind paw. 1 h later, the PWT of the left hind paw of the rats in each group was measured 3-5 times at an interval of 5-10 min. The multiple PWT measurement results were averaged as the practical PWT (unit: g). Then the drug was injected every 2 h according to the above-mentioned administration dose and time, and the corresponding PWT was recorded (six injections in total).
(1) 24 healthy adult SD rats, weighing 180-220 g, were selected, reinjected with 6 μL of a 1 wt % Carr solution and divided into 4 groups randomly and averagely (i.e., groups A-D). The group A was injected with normal saline; the group B was intradermally injected with 0.1 μg/kg of the short peptide P10581 through the plantar surface of the left hind paw; the group C was intradermally injected with 0.1 μg/kg of the short peptide P10581 and then with 5 mg/kg of morphine 30 min later through the plantar surface of the left hind paw; and the group D was intradermally injected with 0.05 μg/kg of the short peptide P10581, and then with 5 mg/kg of morphine 30 min later through the plantar surface of the left hind paw. 1 h later, the PWT of each group was recorded when the mechanical withdrawal of the left hind paw occurred, and each rat was measured 3-5 times at an interval of 5-10 min.
(2) The drug was injected every 2 h according to the above-mentioned administration dose and time (seven times in total), and the PWT was recorded.
(S1) A total of 20 healthy adult SD rats (half male and half female), weighing 180-220 g, were selected, numbered on tails and transferred to the same cage.
(S4) The PWT of the left hind paw of each rat was measured 1 h after the Carr injection.

[2] = test system: morphine analgesic tolerance, neuropathic pain rat model; format: in vivo; details: for analgesic effect of morphine restored: after 5-day continuous administration
Protocol: (1) 15 healthy adult SD rats, weighing 180-220 g, were selected to build a CCI-induced neuropathic pain model. 6 days after the modeling, successful models were randomly divided into 3 groups, where the group A was injected with 0.1 μg/kg of the short peptide P10581; the group B was injected with 5 mg/kg of the morphine; and the group C was injected with 0.1 μg/kg of the short peptide P10581, and then with 5 mg/kg of the morphine 30 min later. 1 h later, the PWT of each group was recorded.
(2) Each group was injected with the drug in the afternoon on the 6th day after the modeling, and from the 7th day to the 12th day, the drug administration was performed at 9:00 a.m. and 5:30 p.m. (5 mg/kg of morphine twice a day; and 0.1 μg/kg of the short peptide P10581 was administered 30 min before the morphine injection). The PWT of rats in each group before and after administration in the morning was measured every other day.
(1) 30 healthy adult SD rats, weighing 180-220 g, were selected to build a CCI-induced neuropathic pain model. Those successfully-established models were randomly divided into 6 groups on the 6th day, where the groups A was injected with normal saline; and the groups B-F were injected with 0.01 μg/kg, 0.025 μg/kg, 0.1 μg/kg, 0.2 μg/kg and 0.4 μg/kg of the short peptide P10581, respectively. 30 min later, the groups A-F were further injected with 5 mg/kg of the morphine, and 1 h later, the PWT of each group was recorded.
(2) Each group was injected with the drug in the afternoon on the 6th day after modeling, and from the 7th day to the 10th day, the drug administration was performed at 9:00 a.m. and 5:30 p.m. (injected twice a day consecutively for 5 days), and the PWT of each group before and after the administration in the morning was measured every other day.
In the FIG. 10B, ΔPWT (drug) and ΔPWT (Baseline) were calculated as follows: ΔPWT(drug)=PWT(post-drug)−PWT(pre-drug); and ΔPWT(Baseline)=PWT(before CCI)−PWT(after CCI).
The intensity of the relieving effect on the tolerance was represented by ΔPWT (drug)/ΔPWT (Baseline), where the ΔPWT (drug) indicated a difference between pain thresholds before and after Mor+P10581 injection in the morning.

[3] = 2 μg/kg i.d. plantar, every 2 h, six injections

## CN1CC[C@]23c4c5ccc(O)c4O[C@H]2[C@@H](O)C=C[C@H]3[C@H]1C5 [morphine, reference compound]
[1]; rat, in vivo
  analgesic effect / tolerance after repeated injection: gradually declined analgesic effect with the increase in the number of injections
[2]; rat, in vivo
  analgesic effect of morphine alone: almost completely disappeared

## WKCNPNDDKCCRPKLKC [P10581]
[1]; 0.1 μg/kg i.d., every 2 h, seven injections
  analgesic effect on hyperalgesia, low dose: no relieving effect on the hyperalgesia in rats
[1]; 2 μg/kg i.d. plantar, every 2 h
  duration of analgesic effect: more than 12 h
[1]; [3]
  analgesic effect on Carr-induced inflammatory pain threshold (PWT): completely reverse the Carr-induced inflammatory pain threshold
  analgesic tolerance after repeated injection: without developing the analgesic tolerance
[2]; 0.1 μg/kg peptide 30 min before 5 mg/kg morphine, twice a day
  effect on morphine analgesic tolerance: partially relieved the morphine analgesic tolerance
[2]; 0.1 μg/kg peptide + 5 mg/kg morphine, 5th day
  restoration of analgesic effect of morphine: restored by half
[2]; 0.2 μg/kg peptide, after 3-day consecutive injection of morphine
  analgesic effect of morphine restored, ΔPWT (drug)/ΔPWT (Baseline): 90.1%
[2]; 0.2 μg/kg peptide
  analgesic effect of morphine restored: higher than 60%
[2]; 0.4 μg/kg peptide + 5 mg/kg morphine (FIGS. 10A, 10B)
  effect on morphine analgesic tolerance: completely reversed
[2]; 0.4 μg/kg peptide, after 3-day consecutive injection of morphine
  effect on morphine analgesic tolerance: completely reverse the morphine analgesic tolerance
[2]; 0.4 μg/kg peptide
  analgesic effect of morphine restored: higher than 85%
[2]; neuropathic pain, rats
  dose at which morphine analgesic tolerance is effectively relieved: ≥ 0.01 µg/kg

Reference: US11612634B2 (priority 2020, dated 2023)
